Experiments:
[1] = Stability tests of treprostinil forms (dimer formation, room temperature stability); format: physicochemical; details: room temperature
Procedure: The anhydrous form of treprostinil (TREPROSTINIL) has been previously described, e.g., in J. Org. Chem. 2004, 69, 1890-1902. […] A larger amount of dimers can form at higher temperatures. However, dimer formation is negligible at 5° C. Therefore, anhydrous treprostinil must be refrigerated for storage and transport. In the past, treprostinil had to be refrigerated and shipped with ice packs to maintain low (2° C.-8° C.) temperatures.
The instability of anhydrous treprostinil also imposes challenges to its preparation. To obtain anhydrous treprostinil, wet compound from recrystallization was heated in a vacuum. […] Therefore, heating temperature must be carefully controlled to avoid high heat when drying treprostinil in order to remove all water, otherwise these two dimer impurities will be produced.
Data has been generated to characterize a monohydrate form of treprostinil. […] Treprostinil monohydrate can be stored and shipped with no special handling.

[2] = Accelerated stability of treprostinil monohydrate at 25, 30 and 40° C. (Lot #01M07033); format: physicochemical
Procedure: III. Accelerated Stability Data at 30 and 40° C. (Lot #01M07033).
In the present experiment, 500 mg Treprostinil monohydrate samples were stored in Nalgene 125 ml, HDPE bottles. The experimental procedure used in this experiment was the same as the described above procedure for lot D-1007-089.

- Stability at room temperature [1]: stable at room temperature
- 3AU90 ([2]; 3-Months, 25° C./60% RH): <0.05%
- 750W93 ([2]; 3-Months, 25° C./60% RH): 0.07%
- 751W93 ([2]; 3-Months, 25° C./60% RH): <0.05%
- Impurity 1 (RRT: 0.58) ([2]; 3-Months, 25° C./60% RH): 0.05%
- Total impurities ([2]; 3-Months, 25° C./60% RH): 0.4%
- UT-15 Assay ([2]; 3-Months, 25° C./60% RH): 99.5%
- UT-15 Ethyl Ester ([2]; 3-Months, 25° C./60% RH): 0.2%
- Water, KF ([2]; 3-Months, 25° C./60% RH): 4.8%
- 3AU90 ([2]; 3-Months, 30° C./65% RH): <0.05%
- 750W93 ([2]; 3-Months, 30° C./65% RH): 0.07%
- 751W93 ([2]; 3-Months, 30° C./65% RH): <0.05%
- Impurity 1 (RRT: 0.58) ([2]; 3-Months, 30° C./65% RH): 0.05%
- Total impurities ([2]; 3-Months, 30° C./65% RH): 0.4%
- UT-15 Assay ([2]; 3-Months, 30° C./65% RH): 99.5%
- UT-15 Ethyl Ester ([2]; 3-Months, 30° C./65% RH): 0.2%
- Water, KF ([2]; 3-Months, 30° C./65% RH): 4.8%
- 3AU90 ([2]; 3-Months, 40 C./75% RH): <0.05%
- 750W93 ([2]; 3-Months, 40 C./75% RH): 0.08%
- 751W93 ([2]; 3-Months, 40 C./75% RH): <0.05%
- Impurity 1 (RRT: 0.58) ([2]; 3-Months, 40 C./75% RH): 0.05%
- Total impurities ([2]; 3-Months, 40 C./75% RH): 0.4%
- UT-15 Assay ([2]; 3-Months, 40 C./75% RH): 99.4%
- UT-15 Ethyl Ester ([2]; 3-Months, 40 C./75% RH): 0.2%
- Water, KF ([2]; 3-Months, 40 C./75% RH): 4.8%
- 3AU90 ([2]; 6-Months, 25° C./60% RH): 0.06%
- 750W93 ([2]; 6-Months, 25° C./60% RH): 0.07%
- 751W93 ([2]; 6-Months, 25° C./60% RH): <0.05%
- Total impurities ([2]; 6-Months, 25° C./60% RH): 0.4%
- UT-15 Assay ([2]; 6-Months, 25° C./60% RH): 99.0%
- UT-15 Ethyl Ester ([2]; 6-Months, 25° C./60% RH): 0.2%
- Water, KF ([2]; 6-Months, 25° C./60% RH): 4.7%
- 3AU90 ([2]; 6-Months, 30° C./65% RH): 0.06%
- 750W93 ([2]; 6-Months, 30° C./65% RH): 0.07%
- 751W93 ([2]; 6-Months, 30° C./65% RH): <0.05%
- Total impurities ([2]; 6-Months, 30° C./65% RH): 0.4%
- UT-15 Assay ([2]; 6-Months, 30° C./65% RH): 99.1%
- UT-15 Ethyl Ester ([2]; 6-Months, 30° C./65% RH): 0.2%
- Water, KF ([2]; 6-Months, 30° C./65% RH): 4.7%
- 3AU90 ([2]; 6-Months, 40 C./75% RH): 0.07%
- 750W93 ([2]; 6-Months, 40 C./75% RH): 0.09%
- 751W93 ([2]; 6-Months, 40 C./75% RH): 0.05%
- Total impurities ([2]; 6-Months, 40 C./75% RH): 0.4%
- UT-15 Assay ([2]; 6-Months, 40 C./75% RH): 99.7%
- UT-15 Ethyl Ester ([2]; 6-Months, 40 C./75% RH): 0.2%
- Water, KF ([2]; 6-Months, 40 C./75% RH): 4.7%
- 3AU90 ([2]; 12-Months, 25° C./60% RH): <0.05%
- 750W93 ([2]; 12-Months, 25° C./60% RH): 0.08%
- 751W93 ([2]; 12-Months, 25° C./60% RH): <0.05%
- Impurity 1 (RRT: 0.58) ([2]; 12-Months, 25° C./60% RH): 0.06%
- Total impurities ([2]; 12-Months, 25° C./60% RH): 0.4%
- UT-15 Assay ([2]; 12-Months, 25° C./60% RH): 99.8%
- UT-15 Ethyl Ester ([2]; 12-Months, 25° C./60% RH): 0.2%
- Water, KF ([2]; 12-Months, 25° C./60% RH): 4.7%
- 3AU90 ([2]; 12-Months, 40 C./75% RH): <0.05%
- 750W93 ([2]; 12-Months, 40 C./75% RH): 0.09%
- 751W93 ([2]; 12-Months, 40 C./75% RH): 0.05%
- Impurity 1 (RRT: 0.58) ([2]; 12-Months, 40 C./75% RH): 0.05%
- Total impurities ([2]; 12-Months, 40 C./75% RH): 0.4%
- UT-15 Assay ([2]; 12-Months, 40 C./75% RH): 98.6%
- UT-15 Ethyl Ester ([2]; 12-Months, 40 C./75% RH): 0.2%
- Water, KF ([2]; 12-Months, 40 C./75% RH): 4.8%
- 3AU90 ([2]; Initial): 0.1%
- 750W93 ([2]; Initial): 0.08%
- 751W93 ([2]; Initial): <0.05%
- Total impurities ([2]; Initial): 0.4%
- UT-15 Assay ([2]; Initial): 98.7%
- UT-15 Ethyl Ester ([2]; Initial): 0.2%
- Water, KF ([2]; Initial): 4.5%
SMILES: CCCCC[C@H](O)CC[C@@H]1[C@H]2Cc3cccc(OCC(=O)O)c3C[C@H]2C[C@H]1O [TREPROSTINIL Lot# D-1007-089, treprostinil monohydrate]
